According to patent publication US10597380B2, “Pyridazinone-based broad spectrum anti-influenza inhibitors” (Hoffmann-La Roche Inc., priority 2017, dated 2020):

Test system: Influenza A/WSN/33-Luciferase virus
Assay: microbe, parasite or virus in culture
Format: cell-based
Conditions: A549, 72 h, luciferase signal three days later, read-out: IC50 antiviral activity (Luciferase reporter assay)

`Cn1cccc(Nc2nn(-c3ccc(OC(F)(F)F)cc3)c(=O)c3ccccc23)c1=O` [Example 1, 4-[(1-methyl-2-oxo-3-pyridyl)amino]-2-[4-(trifluoromethoxy)phenyl]phthalazin-1-one] gave an IC50 of 22 nM.
Compound `O=c1[nH]cccc1Nc1nn(-c2ccc(OC(F)(F)F)cc2)c(=O)c2ccccc12` [Example 2, 4-[(2-oxo-1H-pyridin-3-yl)amino]-2-[4-(trifluoromethoxy)phenyl]phthalazin-1-one] has an IC50 of 54 nM.
`COC(=O)Cn1cccc(Nc2nn(-c3ccc(OC(F)(F)F)cc3)c(=O)c3ccccc23)c1=O` [Example 3, methyl 2-[2-oxo-3-[[4-oxo-3-[4-(trifluoromethoxy)phenyl]phthalazin-1-yl]amino]-1-pyridyl]acetate] was tested, and the IC50 was 38 nM.
Work on `COC(=O)C(C)(C)Cn1cccc(Nc2nn(-c3ccc(OC(F)(F)F)cc3)c(=O)c3ccccc23)c1=O` [Example 4, methyl 2,2-dimethyl-3-[2-oxo-3-[[4-oxo-3-[4-(trifluoromethoxy)phenyl]phthalazin-1-yl]amino]-1-pyridyl]propanoate] yielded an IC50 of 489 nM.
`CCOC(=O)COCCn1cccc(Nc2nn(-c3ccc(OC(F)(F)F)cc3)c(=O)c3ccccc23)c1=O` [Example 5, ethyl 2-[2-[2-oxo-3-[[4-oxo-3-[4-(trifluoromethoxy)phenyl]phthalazin-1-yl]amino]-1-pyridyl]ethoxy]acetate] showed an IC50 of 485 nM.
Work on `COC(=O)[C@H]1CCCN1CCn1cccc(Nc2nn(-c3ccc(OC(F)(F)F)cc3)c(=O)c3ccccc23)c1=O` [Example 6, methyl (2R)-1-[2-[2-oxo-3-[[4-oxo-3-[4-(trifluoromethoxy)phenyl]phthalazin-1-yl]amino]-1-pyridyl]ethyl]pyrrolidine-2-carboxylate] yielded an IC50 of 52 nM.
In the case of `Cc1cc(OC(F)(F)F)ccc1-n1nc(Nc2cccn(C)c2=O)c2ccccc2c1=O` [Example 7, 4-[(1-methyl-2-oxo-3-pyridyl)amino]-2-[2-methyl-4-(trifluoromethoxy)phenyl]phthalazin-1-one], the IC50 is reported as 4340 nM.
`Cn1cccc(Nc2nn(-c3ccc(C(C)(C)C)nc3)c(=O)c3ccccc23)c1=O` [Example 8, 2-(6-tert-butyl-3-pyridyl)-4-[(1-methyl-2-oxo-3-pyridyl)amino]phthalazin-1-one] gave an IC50 of 73 nM.
Work on `Cn1cccc(Nc2nn(-c3cnc(C(C)(C)C)nc3)c(=O)c3ccccc23)c1=O` [Example 9, 2-(2-tert-butylpyrimidin-5-yl)-4-[(1-methyl-2-oxo-3-pyridyl)amino]phthalazin-1-one] yielded an IC50 of 275 nM.
With `Cn1cccc(Nc2nn(-c3ccc(C4(C)COC4)cc3)c(=O)c3ccccc23)c1=O` [Example 10, 2-[4-(3-methyloxetan-3-yl)phenyl]-4-[(1-methyl-2-oxo-3-pyridyl)amino]phthalazin-1-one] the IC50 was 259 nM.
With `Cn1cccc(Nc2nn(-c3ccc(C4COC4)cc3)c(=O)c3ccccc23)c1=O` [Example 11, 4-[(1-methyl-2-oxo-3-pyridyl)amino]-2-[4-(oxetan-3-yl)phenyl]phthalazin-1-one] the IC50 was 2010 nM.
`Cn1cccc(Nc2nn(-c3ccc(C4CC4)cc3)c(=O)c3ccccc23)c1=O` [Example 12, 2-(4-cyclopropylphenyl)-4-[(1-methyl-2-oxo-3-pyridyl)amino]phthalazin-1-one] gave an IC50 of 407 nM.
Work on `COCCOc1ccc(-n2nc(Nc3cccn(C)c3=O)c3ccccc3c2=O)cc1` [Example 13, 2-[4-(2-methoxyethoxy)phenyl]-4-[(1-methyl-2-oxo-3-pyridyl)amino]phthalazin-1-one] yielded an IC50 of 1510 nM.
Compound `Cn1cccc(Nc2nn(-c3ccc(C(C)(C)C)cc3)c(=O)c3ccccc23)c1=O` [Example 14, 2-(4-tert-butylphenyl)-4-[(1-methyl-2-oxo-3-pyridyl)amino]phthalazin-1-one] has an IC50 of 109 nM.
With `CC(C)(C)c1ccc(-n2nc(Nc3ccc[nH]c3=O)c3ccccc3c2=O)cc1` [Example 15, 2-(4-tert-butylphenyl)-4-[(2-oxo-1H-pyridin-3-yl)amino]phthalazin-1-one] the IC50 was 132 nM.
Compound `COc1ccc2c(Nc3cccn(C)c3=O)nn(-c3ccc(OC(F)(F)F)cc3)c(=O)c2c1` [Example 16, 7-methoxy-4-[(1-methyl-2-oxo-3-pyridyl)amino]-2-[4-(trifluoromethoxy)phenyl]phthalazin-1-one] has an IC50 of 12 nM.
`Cn1cccc(Nc2nn(-c3ccc(OC(F)(F)F)cc3)c(=O)c3c(F)cccc23)c1=O` [Example 17, 8-fluoro-4-[(1-methyl-2-oxo-3-pyridyl)amino]-2-[4-(trifluoromethoxy)phenyl]phthalazin-1-one] showed an IC50 of 100 nM.
`Cn1cccc(Nc2nn(-c3ccc(OC(F)(F)F)cc3)c(=O)c3cccc(F)c23)c1=O` [Example 18, 5-fluoro-4-[(1-methyl-2-oxo-3-pyridyl)amino]-2-[4-(trifluoromethoxy)phenyl]phthalazin-1-one] was tested, and the IC50 was 122 nM.
For `COc1cccc2c(=O)n(-c3ccc(OC(F)(F)F)cc3)nc(Nc3cccn(C)c3=O)c12` [Example 19, 5-methoxy-4-[(1-methyl-2-oxo-3-pyridyl)amino]-2-[4-(trifluoromethoxy)phenyl]phthalazin-1-one], the IC50 was 59500 nM.
`CCc1ccc2c(Nc3cccn(C)c3=O)nn(-c3ccc(C(C)(C)C)cc3)c(=O)c2c1` [Example 20, 2-(4-tert-butylphenyl)-7-ethyl-4-[(1-methyl-2-oxo-3-pyridyl)amino]phthalazin-1-one] showed an IC50 of 4 nM.
Compound `Cn1cccc(Nc2nn(-c3ccc(OC(F)(F)F)cc3)c(=O)c3c2CCCC3)c1=O` [Example 21, 4-[(1-methyl-2-oxo-3-pyridyl)amino]-2-[4-(trifluoromethoxy)phenyl]-5,6,7,8-tetrahydrophthalazin-1-one] has an IC50 of 5 nM.
For `Cn1cncc(Nc2nn(-c3ccc(OC(F)(F)F)cc3)c(=O)c3c2CCCC3)c1=O` [Example 22, 4-[(1-methyl-6-oxo-pyrimidin-5-yl)amino]-2-[4-(trifluoromethoxy)phenyl]-5,6,7,8-tetrahydrophthalazin-1-one], the IC50 was 16 nM.
`COC(=O)c1cc(Nc2nn(-c3ccc(OC(F)(F)F)cc3)c(=O)c3c2CCCC3)c(=O)n(C)c1` [Example 23, methyl 1-methyl-6-oxo-5-[[4-oxo-3-[4-(trifluoromethoxy)phenyl]-5,6,7,8-tetrahydrophthalazin-1-yl]amino]pyridine-3-carboxylate] was tested, and the IC50 was 712 nM.
`COC(=O)Cn1cccc(Nc2nn(-c3ccc(OC(F)(F)F)cc3)c(=O)c3c2CCCC3)c1=O` [Example 24, methyl 2-[2-oxo-3-[[4-oxo-3-[4-(trifluoromethoxy)phenyl]-5,6,7,8-tetrahydrophthalazin-1-yl]amino]-1-pyridyl]acetate] showed an IC50 of 22 nM.
`CN(C)CCn1cncc(Nc2nn(-c3ccc(OC(F)(F)F)cc3)c(=O)c3c2CCCC3)c1=O` [Example 25, 4-[[1-[2-(dimethylamino)ethyl]-6-oxo-pyrimidin-5-yl]amino]-2-[4-(trifluoromethoxy)phenyl]-5,6,7,8-tetrahydrophthalazin-1-one] was tested, and the IC50 was 14 nM.
In the case of `Cn1cccc(Nc2nn(-c3ccc(C(C)(C)C)nc3)c(=O)c3c2CCCC3)c1=O` [Example 26, 2-(6-tert-butyl-3-pyridyl)-4-[(1-methyl-2-oxo-3-pyridyl)amino]-5,6,7,8-tetrahydrophthalazin-1-one], the IC50 is reported as 25 nM.
`Cn1cccc(Nc2nn(-c3ccc(OC(F)F)cc3)c(=O)c3c2CCCC3)c1=O` [Example 27, 2-[4-(difluoromethoxy)phenyl]-4-[(1-methyl-2-oxo-3-pyridyl)amino]-5,6,7,8-tetrahydrophthalazin-1-one] showed an IC50 of 41 nM.
